In patent publication US20260183274A1, “PDK1 REGULATORY COMPOUND AND COMPOSITION CONTAINING THE SAME” (PROVIBIO CO., LTD., priority 2024, published 2026):
Like-named read-outs stand apart in the source and are kept apart here.

Columns and labels:
[1] = system: Human B Lymphocyte cell line, SU-DHL-8; assay: Relative cell viability CCK-8, SU-DHL-8; format: cell-based
Summary of the method: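 Cells grown in RPMI-1640 with 10% FBS, treated with compound at several concentrations, then given CCK-8 for 4 h at 37° C. Viability expressed as percent of DMSO-treated cells.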

[2] = system: HCT-116 colon cancer cell lines; assay: Matrigel Invasion Assay, HCT-116; format: cell-based, human; details: 24 hours treatment, FIG. 30
Method: To evaluate the metastasis inhibitory efficacy of the compounds of the present invention on HCT-116 colon cancer cell lines, an Invasion Assay using Matrigel was performed to assess the cells' invasion ability.
First, Matrigel was thawed on ice in RPMI-1640 medium without FBS, then diluted with DMEM at a ratio of 1:20.
The diluted Matrigel mixture was applied to the upper chamber at 100 μl per well, and 750 μl of RPMI-1640 without FBS was added to the lower chamber.
The plates were then incubated at 37° C. for 1 hour to allow the Matrigel to solidify.
After coating, the Matrigel mixture in the upper chamber was removed using a pipette, and the chamber was washed with RPMI without FBS.
Human-derived colorectal cancer cell line HCT-116, obtained from the Korean Cell Bank, was cultured in RPMI-1640 medium containing 10% FBS.
Following stabilization, the cells were harvested using Trypsin-EDTA treatment, centrifuged at 1,200 rpm for 3 minutes, the supernatant was removed, and the cells were resuspended in the same medium, the medium in the lower chamber was replaced with 750 μl of RPMI-1640 supplemented with 10% FBS, and the cells were seeded into the upper chamber at a density of 5×10^4 cells/well.
The cells were cultured for 24 hours after attachment, and then the compounds according to the present invention (G078, G085, G086, G088, G089, PBK-2024-010, PBK-2025-010, PBK-2025-013, PBK-2025-016) and the control substance DMSO were diluted and added to the upper chamber after removing the medium.
Additionally, the medium in the lower chamber was replaced with fresh RPMI-1640 containing FBS, and the culture was continued.
After an additional 24 hours, the medium was removed, and 1 ml of methanol was added for 10 minutes to fix the cells.
Subsequently, 1 ml of Hematoxylin was added and reacted for 5 minutes, followed by 1 ml of Eosin, which was reacted for 30 seconds. The sample was then washed with distilled water (DW).
After staining was complete, any remaining cells in the upper chamber were removed. Finally, the infiltrated cells were observed under a microscope, photographed, and the degree of infiltration was analyzed.

[3] = system: MRL/lpr mice; assay: Lupus animal model (MRL/lpr mice); format: in vivo, mouse; details: for Hair growth on the facial region: 41-week-old female MRL/lpr, GO15F 30 mg/kg, GO48 1 mg/kg, GO88 0.5 mg/kg i.p. once daily, FIG. 24
Excerpt: The MRL/MpJ-Faslpr/J (Hereinafter Referred to as “MRL/lpr”) used in this experiment is one of the representative animal models for systemic lupus erythematosus (SLE), known to produce various autoantibodies, including antinuclear antibodies, due to the lpr (lymphoproliferation) gene.
In this invention, the period up to 9 weeks of age was considered the pre-disease stage, and the period after 23 weeks of age was considered the post-disease stage, and efficacy verification experiments using this model were conducted.
MRL/lpr mice were imported from The Jackson Laboratory and acclimatized for one week in an SPF (Specific Pathogen Free) facility maintained at a temperature of 21-24° C., humidity of 40-60%, and a 12-hour light-dark cycle (lights on at 7:00 AM, lights off at 7:00 PM).
Subsequently, female and male MRL/lpr mice were mated at a ratio of 2:1 in the same facility, and the female offspring were administered the compound GO15F of the present invention or vehicle at a dose of 30 mg/kg […]
Urine samples were collected once a week from each individual and used for analytical experiments. […]
The protein concentration in urine collected weekly from the control group or experimental group was analyzed using ‘Quick Start™ Bradford 1× Dye Reagent (Bio-Rad, Cat. #5000205).’
In each well of a 96-well plate, 5 μl of urine sample diluted with triple-distilled water and 250 μl of 1× dye reagent were added, reacted, and the absorbance was measured at 595 nm. […]
Each kidney tissue was used to isolate total RNA using TRIzol™ (Invitrozen, Cat. #15596018). RNA from each mouse was quantified at 1 μg using a micro-quantitative spectrophotometer (ThermoFisher Scientific, ND2000) and cDNA was synthesized.
The synthesized cDNA from each mouse was quantified to a concentration of 50 ng using a micro-quantitative spectrophotometer, and qPCR was performed for the cytokines ‘IL-2, IL-6, IL-10, IL-17, TNF-α, IFN-γ’ using a SYBR green probe (CFX96, BIO-RAD).
To investigate the effects of drug administration on renal tissue in MRL/lpr mice, the tissue was fixed in 10% neutral buffered formalin at room temperature, followed by stepwise ethanol penetration for dehydration. The tissue was then embedded in xylene and paraffin.
The blocked tissues were sectioned into 4 μm thick slices using a microtome, followed by deparaffinization, hydration, and staining.
Hematoxylin & Eosin staining, PAS staining, and Masson trichrome staining were performed for pathological evaluation of the tissues.
To determine the extent of IgG deposition in kidney tissue of MRL/lpr mice, immunofluorescence staining was performed using anti-IgG antibodies on paraffin-embedded kidney tissue sections, and the staining results were examined using a fluorescence microscope.
Additionally, in 41-week-old female MRL/lpr mice, the compounds GO15F (30 mg/kg), GO48 (1 mg/kg), and GO88 (0.5 mg/kg) were administered intraperitoneally once daily.
To confirm the proliferative activity of hair follicle cells in the skin tissue of these mice, the mice were sacrificed 14 days after administration of the compounds of the present invention, and Ki-67 immunohistochemistry (IHC) was performed.
For this purpose, the excised skin tissue was fixed in formalin, embedded in paraffin blocks, and stained with a Ki-67-specific antibody on tissue sections prepared as slides.

[4] = 30 μM, 48 hours, untreated (DMSO) = 100%
[5] = 50 μM, 48 hours, untreated (DMSO) = 100%
[6] = Homo sapiens, SU-DHL-8, 48 h, read-out: Relative cell viability (%), SU-DHL-8, 1 μM, 48 hours, untreated (DMSO) = 100%
[7] = Homo sapiens, SU-DHL-8, 48 h, read-out: Relative cell viability (%), SU-DHL-8, 10 μM, 48 hours, untreated (DMSO) = 100%

SMILES	Relative cell viability (%), SU-DHL-8 [1, 4]	Relative cell viability (%), SU-DHL-8 [1, 5]	Number of infiltrated cells (invasion) [2]	viability at 1 µM [1, 6]	viability at 10 µM [1, 7]	Relative cell viability (%), SU-DHL-8 ([1]; human, 48 h, 30 µM)	Relative cell viability (%), SU-DHL-8 ([1]; human, 48 h, 50 µM)	Hair growth on the facial region [3]	further results
CC1(C)CN(CCCCCCCCCCCCC(=O)Nc2nc(N)c3[nH]cnc3n2)CCO1 [Compound 11, 12-[4-(2,2-dimethylmorpholin-4-yl)]dodecyl-N-(6-aminopurine-2-yl) carboxamide]	4.82%	3.29%	reduction in the number of infiltrated cells	–	–	–	–	–	Relative cell viability (%), SU-DHL-8 ([1]; 1 μM, 48 hours, untreated (DMSO) = 100%): 7.63%; Relative cell viability (%), SU-DHL-8 ([1]; 10 μM, 48 hours, untreated (DMSO) = 100%): 6.09%
Nc1nc(NC(=O)CCCCCCCCCCCCN2CCN(CCO)CC2)nc2nc[nH]c12 [Compound 15, 12-[4-(2-hydroxyethyl)piperazin-1-yl]dodecyl-N-(6-aminopurine-2-yl) carboxamide]	–	–	reduction in the number of infiltrated cells	–	–	–	–	–	–
Nc1ncccc1C(=O)NCCCCCCCCCCCCN1CCNCC1 [Compound 5, 2-Amino-N-(12-(piperazin-1-yl)dodecyl)-nicotinamide]	–	–	reduction in the number of infiltrated cells	8.8%	5.87%	4.63%	3.67%	–	–
Nc1ncccc1C(=O)NCCCCCCCCCCCCN1CCNCC1 [Compound 14, 2-Amino-N-(12-(piperazin-1-yl)dodecyl)nicotinamide]	–	–	–	–	–	1.16%	0.32%	hair growth was confirmed	Relative cell viability (%), SU-DHL-8 ([1]; human, 48 h, 1 µM): 9.28%; Relative cell viability (%), SU-DHL-8 ([1]; human, 48 h, 10 µM): 3.31%
Nc1ncccc1C(=O)NCCCCCCCCCCCCN1CCOCC1 [Compound 2, 2-Amino-N-(12-morpholin-4-yl-dodecyl)-nicotinamide]	–	–	–	31%	26%	–	–	hair growth was confirmed	viability at 30 µM ([1]; Homo sapiens, SU-DHL-8, 48 h, read-out: Relative cell viability (%), SU-DHL-8, 30 μM, 48 hours, untreated (DMSO) = 100%): 25.3%; viability at 50 µM ([1]; Homo sapiens, SU-DHL-8, 48 h, read-out: Relative cell viability (%), SU-DHL-8, 50 μM, 48 hours, untreated (DMSO) = 100%): 24.7%
Nc1ncccc1C(=O)NCCCCCCCCCCCCF [Compound 57, 2-Amino-N-(12-fluoro-dodecyl)-nicotinamide]	15.63%	11.94%	–	–	–	–	–	hair growth was confirmed	Protein concentration in urine (proteinuria) ([3]; 30 mg/kg once daily, vs control MRL/lpr, FIG. 16): significantly lower than that in the control group; B cells, T cells and macrophages in spleen (flow cytometry) ([3]; FIG. 19): reduced the increased B cells, T cells, and macrophages; IgG deposition in kidney tissue (immunofluorescence) ([3]; FIG. 22): significantly lower; Renal pathological tissue staining (glomerular capillary loops) ([3]; H&E, PAS, Masson trichrome, FIG. 21): the glomerular capillary loops were well maintained; Concentration of anti-dsDNA IgG in blood ([3]; serum at necropsy (23 weeks), vs control MRL/lpr, FIG. 17): significantly lower; Total IgG concentration in blood ([3]; serum at necropsy, vs control MRL/lpr, FIG. 18): significantly lower; viability at 1 µM ([1]; Homo sapiens, SU-DHL-8, 48 h, 1 μM, 48 hours, untreated (DMSO) = 100%, read-out: Relative cell viability (%), SU-DHL-8): 19%; viability at 10 µM ([1]; Homo sapiens, SU-DHL-8, 48 h, 10 μM, 48 hours, untreated (DMSO) = 100%, read-out: Relative cell viability (%), SU-DHL-8): 18.8%
